pIC50: −log10 of the molar value.
Assay: Determination of LMP7 Activity: Measurement of LMP7 inhibition is performed in 384 well format based on fluorescence intensity assay.Purified human immuno proteasome (0.25 nM) and serial diluted compounds in DMSO (range of concentrations from 30 μM to 15 pM) or controls are incubated for 20 minutes or 120 minutes (long incubation) at 25° C. in assay buffer containing 50 mM Tris pH 7.4, 0.03% SDS, 1 mM EDTA and 1% DMSO. The reaction is initiated by the addition of the fluorogenic peptide substrate, Suc-LLVY-AMC (Bachem 1-1395), at a concentration of 40 μM. After 60 minutes of incubation at 37° C., fluorescence intensity is measured at λex=350 nm and λem=450 nm with a fluorescence reader (Perkin Elmer Envision reader or equivalent).

| pIC50 | IC50 | SMILES |
| --- | --- | --- |
| > 7.30 | – | CC#CC(=O)N(CCC)CC(=O)N[C@@H](Cc1ccc(C)cc1C)B(O)O |
| – | in the range around 275 nM | C=CS(=O)(=O)N(C)CC(=O)N[C@@H](Cc1ccc(C)c(C)c1)B(O)O |

Source: ChEMBL document CHEMBL5727755, “Boronic acid derivatives” (2020)
